The text below walks through data of patent US20210278408A1, “METHODS OF TREATMENT OF CANCER WITH SUBSTITUTED PYRROLE AND PYRAZOLE COMPOUNDS AND DIAGNOSIS OF CANCERS SUSCEPTIBLE TO TREATMENT WITH SUBSTITUTED PYRROLE AND PYRAZOLE COMPOUNDS” (Bantam Pharmaceutical, LLC, priority 2018, published 2021).

One test concerns ATF4. Kind of test: ATF4 induction by immunofluorescence in HCT-116 cells transfected with tGFP or FAM210B-GFP. Also on record: compound mediated ATF4 induction versus FAM210B expression: dose or concentration left out as unconfirmed. The class given is cell-based, human. From the text:
FIG. 17 is a set of fluorescence micrographs of HCT-116 cells transfected with a vector expressing tGFP (left) or FAM210B-GFP (right).
FIG. 18 is a graph of ATF4 expression versus GFP expression for HCT-116 cells transfected with a vector expressing tGFP or FAM210B-GFP.
HCT-116 cells were transfected with a vector expressing tGFP or FAM210B-GFP. […] Following 4 hrs of drug treatment the cells were fixed, permeabilized, and ATF4 levels determined by immunofluorescence (IF), and FAM210B levels were determined by detection of GFP. Cells were binned based on median ATF4 protein expression and ranked relative to level of FAM210B-tGFP.

Test [1] has as its system BJAB (malignant human B-cell-line). In words: BJAB cell proliferation. To be noted: BJAB (malignant human B-cell-line) cell proliferation, EC50; read-out: BJAB. The class given is cell-based. From the text: In certain embodiments, the therapeutic compound is one of the compounds of the compound table below. […] In certain embodiments, the therapeutic compound is a compound having an activity as “A,” “B” or “C” in the table below. In certain embodiments, the therapeutic compound is a compound having an activity as “A” or “B” in the table below. In certain embodiments, the therapeutic compound is a compound having an activity as “A” in the table below.
In certain embodiments, the therapeutic compound is one of the compounds of the compound table below, optionally provided as a pharmaceutically-acceptable salt or N-oxide, and/or a solvate or hydrate. […] In certain embodiments, the therapeutic compound is a compound having an activity as “A,” “B” or “C” in the table below. In certain embodiments, the therapeutic compound is a compound having an activity as “A” or “B” in the table below. In certain embodiments, the therapeutic compound is a compound having an activity as “A” in the table below.

Like-named read-outs stand apart in the source and are kept apart here.

Take `Cc1nn(-c2nc(C3=CCC(C(F)(F)F)CC3)c(SC(C)C)s2)c(C(=O)O)c1-c1cccc(F)c1` (stereo not drawn) [Compound B5, 4-(3-fluorophenyl)-1-(5-(isopropylthio)-4-(4-(trifluoromethyl)cyclohex-1-en-1-yl)thiazol-2-yl)-3-methyl-1H-pyrazole-5-carboxylic acid]: the “compound mediated ATF4 induction versus FAM210B expression” value in the test with ATF4 (HCT-116 transfected with tGFP or FAM210B-GFP, 4 hrs, immunofluorescence) was “induction of ATF4 is inhibited by FAM210B expression in HCT-116 cells”. For the same molecule, the “effect of PERK inhibitors on compound mediated induction of ATF4” value with ATF4 (follow-up studies) is “no effect”. In addition, the EC50 in test [1] is below 1 µM.

Take `COCCOCC(=O)Nc1ccc(-c2sc(-n3nc(C)c(-c4cccc(F)c4)c3C(=O)O)nc2-c2ccc(C(F)(F)F)cc2)cc1` [Compound B52, 4-(3-fluorophenyl)-1-(5-(4-(2-(2-methoxyethoxy)acetamido)phenyl)-4-(4-(trifluoromethyl)phenyl)thiazol-2-yl)-3-methyl-1H-pyrazole-5-carboxylic acid]: the EC50 in test [1] was 10 to 25 µM.

For the molecule `COCCNC(=O)CCc1sc(-n2nc(C)c(-c3cccc(F)c3)c2C(=O)O)nc1-c1ccc(C(F)(F)F)cc1` [Compound B53, 4-(3-fluorophenyl)-1-(5-(3-((2-methoxyethyl)amino)-3-oxopropyl)-4-(4-(trifluoromethyl)phenyl)thiazol-2-yl)-3-methyl-1H-pyrazole-5-carboxylic acid], the EC50 in test [1] is above 20 µM.

`COCCN(C)C(=O)CCc1sc(-n2nc(C)c(-c3cccc(F)c3)c2C(=O)O)nc1-c1ccc(C(F)(F)F)cc1` [Compound B54, 4-(3-fluorophenyl)-1-(5-(3-((2-methoxyethyl)(methyl)amino)-3-oxopropyl)-4-(4-(trifluoromethyl)phenyl)thiazol-2-yl)-3-methyl-1H-pyrazole-5-carboxylic acid]: in test [1], the EC50 is above 20 µM.

`COCC(=O)N(C)c1ccc(-c2sc(-n3nc(C)c(-c4cccc(F)c4)c3C(=O)O)nc2-c2ccc(C(F)(F)F)cc2)cc1` [Compound B55, 4-(3-fluorophenyl)-1-(5-(4-(2-methoxy-N-methylacetamido)phenyl)-4-(4-(trifluoromethyl)phenyl)thiazol-2-yl)-3-methyl-1H-pyrazole-5-carboxylic acid]: the EC50 in test [1] is above 20 µM.

`COCCOCC(=O)N(C)c1ccc(-c2sc(-n3nc(C)c(-c4cccc(F)c4)c3C(=O)O)nc2-c2ccc(C(F)(F)F)cc2)cc1` [Compound B56, 4-(3-fluorophenyl)-1-(5-(4-(2-(2-methoxyethoxy)-N-methylacetamido)phenyl)-4-(4-(trifluoromethyl)phenyl)thiazol-2-yl)-3-methyl-1H-pyrazole-5-carboxylic acid]: in test [1], the EC50 is above 20 µM.

For the molecule `COCc1sc(-n2nc(C)c(-c3cccc(F)c3)c2C(=O)O)nc1-c1ccc(C(F)(F)F)cc1` [Compound B57, 4-(3-fluorophenyl)-1-(5-(methoxymethyl)-4-(4-(trifluoromethyl)phenyl)thiazol-2-yl)-3-methyl-1H-pyrazole-5-carboxylic acid], in test [1], the EC50 fell in the range of 5 to 10 µM.

Consider `CCOCCOCCOc1ccc(-c2sc(-n3nc(C)c(-c4cccc(F)c4)c3C(=O)O)nc2-c2ccc(C(F)(F)F)cc2)cc1` [Compound B58, 1-(5-(4-(2-(2-ethoxyethoxy)ethoxy)phenyl)-4-(4-(trifluoromethyl)phenyl)thiazol-2-yl)-4-(3-fluorophenyl)-3-methyl-1H-pyrazole-5-carboxylic acid], for which the EC50 in test [1] was in the range of 1 to 5 µM.

For the molecule `Cc1nn(-c2nc(-c3ccc(C(F)(F)F)cc3)c(-c3cccc(F)c3)s2)c(C(=O)O)c1-c1cccc(F)c1` [Compound B59, 4-(3-fluorophenyl)-1-(5-(3-fluorophenyl)-4-(4-(trifluoromethyl)phenyl)thiazol-2-yl)-3-methyl-1H-pyrazole-5-carboxylic acid], the EC50 in test [1] is below 1 µM.

Regarding `Cc1nn(-c2nc(-c3ccc(C(F)(F)F)cc3)c(CO)s2)c(C(=O)O)c1-c1cccc(F)c1` [Compound B60, 4-(3-fluorophenyl)-1-(5-(hydroxymethyl)-4-(4-(trifluoromethyl)phenyl)thiazol-2-yl)-3-methyl-1H-pyrazole-5-carboxylic acid], the EC50 in test [1] is above 20 µM.

On to `Cc1nn(-c2nc(N3CCC(C(F)(F)F)CC3)c(-c3ccc(C(F)(F)F)cc3)s2)c(C(=O)O)c1-c1cccc(F)c1` [Compound B61, 4-(3-fluorophenyl)-3-methyl-1-(5-(4-(trifluoromethyl)phenyl)-4-(4-(trifluoromethyl)piperidin-1-yl)thiazol-2-yl)-1H-pyrazole-5-carboxylic acid], for which the EC50 in test [1] is below 1 µM.

For `Cc1nn(-c2nc(-c3cccc(F)c3)c(-c3ccc(C(F)(F)F)cc3)s2)c(C(=O)O)c1-c1cccc(F)c1` [Compound B62, 4-(3-fluorophenyl)-1-(4-(3-fluorophenyl)-5-(4-(trifluoromethyl)phenyl)thiazol-2-yl)-3-methyl-1H-pyrazole-5-carboxylic acid], the EC50 in test [1] was 5 to 10 µM.

Consider `Cc1nn(-c2nc(-c3ccc(C(F)(F)F)cc3)c(C(C)O)s2)c(C(=O)O)c1-c1cccc(F)c1` (stereo not drawn) [Compound B63, 4-(3-fluorophenyl)-1-(5-(1-hydroxyethyl)-4-(4-(trifluoromethyl)phenyl)thiazol-2-yl)-3-methyl-1H-pyrazole-5-carboxylic acid], for which, in test [1], the EC50 is above 20 µM.

In the case of `Cc1nn(-c2nc(-c3ccc(C(F)(F)F)cc3)c(CCO)s2)c(C(=O)O)c1-c1cccc(F)c1` [Compound B64, 4-(3-fluorophenyl)-1-(5-(2-hydroxyethyl)-4-(4-(trifluoromethyl)phenyl)thiazol-2-yl)-3-methyl-1H-pyrazole-5-carboxylic acid], in test [1], the EC50 was above 20 µM.

As to `COCCOc1ccc(-c2sc(-n3nc(C)c(-c4cccc(F)c4)c3C(=O)O)nc2-c2ccc(C(F)(F)F)cc2)cc1` [Compound B65, 4-(3-fluorophenyl)-1-(5-(4-(2-methoxyethoxy)phenyl)-4-(4-(trifluoromethyl)phenyl)thiazol-2-yl)-3-methyl-1H-pyrazole-5-carboxylic acid], in test [1], the EC50 was 1 to 5 µM.

For `COC(C)c1sc(-n2nc(C)c(-c3cccc(F)c3)c2C(=O)O)nc1-c1ccc(C(F)(F)F)cc1` (stereo not drawn) [Compound B66, 4-(3-fluorophenyl)-1-(5-(1-methoxyethyl)-4-(4-(trifluoromethyl)phenyl)thiazol-2-yl)-3-methyl-1H-pyrazole-5-carboxylic acid], the EC50 in test [1] was in the range of 5 to 10 µM.

`Cc1nn(-c2nc(N3CCC(C(C)C)CC3)c(SC(C)C)s2)c(C(=O)O)c1-c1cccc(F)c1` [Compound B67, 4-(3-fluorophenyl)-1-(4-(4-isopropylpiperidin-1-yl)-5-(isopropylthio)thiazol-2-yl)-3-methyl-1H-pyrazole-5-carboxylic acid]: in test [1], the EC50 lay within 1 to 5 µM.

As to arsenite [reference compound], the “effect of FAM210B expression on induction of ATF4 by the agent” value with ATF4 was “no effect”.

Consider tunicamycin [reference compound], for which the “effect of FAM210B expression on induction of ATF4 by the agent” value in the test on ATF4 (alternate pathways of ATF4 induction) is “no effect”.
